Laboratory results published in ChEMBL document CHEMBL1149941, “The design and synthesis of novel hydroxyproline inhibitors of HIV-1 proteinase” (Bioorg Med Chem Lett, 1993).
pIC50: −log10 of the molar value.

Target: Human immunodeficiency virus type 1 protease (Human immunodeficiency virus 1, UniProt Q72874)
Test: Inhibitory activity against HIV-1 proteinase

Row | SMILES | pIC50
1 | CC(C)CN1CC(O)(CNC(=O)[C@H]2N[C@@H]([C@H](NC(=O)Cc3ccccc3)C(=O)NCc3ccccc3)SC2(C)C)C[C@H]1C(=O)NC(C)(C)C (stereo not given in full) | 7.15
2 | CC(C)CN1CC(O)(CNC(=O)[C@@H]2N[C@@H]([C@H](NC(=O)Cc3ccccc3)C(=O)NCc3ccccc3)SC2(C)C)C[C@H]1C(=O)NC(C)(C)C (stereo not given in full) | 7.52
3 | CC(C)CN1C[C@](O)([C@H](CC2CCCCC2)NC(=O)CC(C)(C)C)C[C@H]1C(=O)NC(C)(C)C | 5.05
4 | CC(C)CN1CC(O)(CNC(=O)OC(C)(C)C)C[C@@H]1C(=O)NC(C)(C)C (stereo not given in full) | < 4.05
5 | CC(C)CN1CC(O)(CNC(=O)OC(C)(C)C)C[C@H]1C(=O)NC(C)(C)C (stereo not given in full) | < 4.05
